Test results taken from PMC11822212, “High-throughput screening identifies Aurora kinase B as a critical therapeutic target for Merkel cell carcinoma” (Nature Communications, 2025).
Structures can show the parent of a compound that is named as a salt.

How the values were obtained:
MCC13 cells (VN-MCC) = test: qHTS cell viability (CellTiter-Glo, 72 h; primary and follow-up small molecule screen); type: cell-based, human; conditions: MCC13; for MCC13_AUC: NPC library, qHTS dose-response AUC
MCC26 cells (VN-MCC) = test: as above; type: cell-based, human
UISO cells (VN-MCC) = test: as above; type: cell-based, human; conditions: UISO; for UISO_AUC: NPC library, qHTS dose-response AUC
WAGA cells (VP-MCC) = test: as above; type: cell-based, human; conditions: WAGA; for WAGA_AUC: NPC library, qHTS dose-response AUC
MKL-1 cells (VP-MCC) = test: as above; type: cell-based, human; conditions: for MKL1_AUC: NPC library, qHTS dose-response AUC, MKL1
MKL-2 cells (VP-MCC) = test: as above; type: cell-based, human; conditions: for MKL2_AUC: NPC library, qHTS dose-response AUC, MKL2
HACAT cells = test: qHTS cell viability (CellTiter-Glo, 72 h; primary screen), control cell line; type: cell-based, human; conditions: NPC library; qHTS dose-response AUC, HACAT control
HEK293T cells = test: as above; type: cell-based, human
NIH-3T3 cells = test: as above; type: cell-based, mouse; conditions: NPC library; qHTS dose-response AUC, NIH3T3 control
CRL-7250 cells = test: as above; type: cell-based; conditions: NPC library; qHTS dose-response AUC, CRL7250 control
[1] = tested on: MCC cell lines (WAGA, MKL-1, MKL-2, MCC13, MCC26, UISO); test: qHTS cell viability, all six MCC cell lines as a group (mean AUC, MCC.avg); type: cell-based, human; conditions: NPC library
[2] = tested on: VP-MCC cell lines (WAGA, MKL-1, MKL-2); test: qHTS cell viability, VP-MCC cell lines as a group (mean AUC, VP.MCC.avg); type: cell-based, human; conditions: for VP-MCC_Avg_AUC: mean AUC of VP-MCC cell lines
[3] = tested on: VN-MCC cell lines (MCC13, MCC26, UISO); test: qHTS cell viability, VN-MCC cell lines as a group (mean AUC, VN.MCC.avg); type: cell-based, human; conditions: for VN-MCC_Avg_AUC: mean AUC of VN-MCC cell lines
[4] = tested on: control cell lines (HACAT, HEK293T, CRL-7250, NIH-3T3); test: qHTS cell viability, control cell lines as a group (mean AUC, Control.avg); type: cell-based; conditions: NPC library; mean AUC of control cell lines
[5] = tested on: six MCC cell lines and four control cell lines; test: qHTS cell viability, all 10 cell lines screened; type: cell-based; conditions: NPC library; therapeutic window: Control avg AUC minus MCC avg AUC
[6] = NPC library; qHTS dose-response AUC, MCC26
[7] = NPC library; qHTS dose-response AUC, HEK293T control
[8] = NPC library, therapeutic window: Control avg AUC minus VP-MCC avg AUC
[9] = NPC library, therapeutic window: Control avg AUC minus VN-MCC avg AUC

Row | Structure (SMILES) | MCC13_AUC (MCC13 cells (VN-MCC)) | MCC26_AUC (MCC26 cells (VN-MCC); [6]) | UISO_AUC (UISO cells (VN-MCC)) | WAGA_AUC (WAGA cells (VP-MCC)) | MKL1_AUC (MKL-1 cells (VP-MCC)) | MKL2_AUC (MKL-2 cells (VP-MCC)) | HACAT_AUC (HACAT cells) | HEK293T_AUC (HEK293T cells; [7]) | NIH3T3_AUC (NIH-3T3 cells) | CRL7250_AUC (CRL-7250 cells) | MCC_Avg_AUC ([1]; mean AUC of six MCC cell lines) | VP-MCC_Avg_AUC ([2]; NPC library) | Control-VP-MCC [2, 8] | VN-MCC_Avg_AUC ([3]; NPC library) | Control-VN-MCC [3, 9] | Control_Avg_AUC [4] | Control-MCC [5] | also measured
1 | CCCCCCC[N+](CC)(CC)CCCCc1ccc(Cl)cc1.Cc1ccc(S(=O)(=O)[O-])cc1 [Clofilium tosylate] | 487.681 | 466.849 | 375.709 | 331.884 | 311.939 | 283.262 | 444.696 | 375.013 | 452.7 | 402.177 | 376.221 | 309.028 | 109.618 | 443.413 | -24.7666 | 418.646 | 42.4257 | Area under the dose-response curve (AUC) MCC13 Replicate 1 (MCC13 cells (VN-MCC); follow-up screen, replicate 1): 426.2; Area under the dose-response curve (AUC) MCC13 Replicate 2 (MCC13 cells (VN-MCC); follow-up screen, replicate 2): 460.3; Area under the dose-response curve (AUC) MCC13 Replicate 3 (MCC13 cells (VN-MCC); follow-up screen, replicate 3): 452.0; Area under the dose-response curve (AUC) MCC26 Replicate 1 (MCC26 cells (VN-MCC); follow-up screen; MCC26; replicate 1): 410.9; Area under the dose-response curve (AUC) MCC26 Replicate 2 (MCC26 cells (VN-MCC); follow-up screen; MCC26; replicate 2): 395.3; Area under the dose-response curve (AUC) MCC26 Replicate 3 (MCC26 cells (VN-MCC); follow-up screen; MCC26; replicate 3): 393.8; Area under the dose-response curve (AUC) UISO Replicate 1 (UISO cells (VN-MCC); follow-up screen, replicate 1): 319.6; Area under the dose-response curve (AUC) UISO Replicate 2 (UISO cells (VN-MCC); follow-up screen, replicate 2): 366.0; Area under the dose-response curve (AUC) UISO Replicate 3 (UISO cells (VN-MCC); follow-up screen, replicate 3): 321.7; Area under the dose-response curve (AUC) WAGA Replicate 1 (WAGA cells (VP-MCC); follow-up screen, replicate 1): 348.8; Area under the dose-response curve (AUC) WAGA Replicate 2 (WAGA cells (VP-MCC); follow-up screen, replicate 2): 411.4; Area under the dose-response curve (AUC) WAGA Replicate 3 (WAGA cells (VP-MCC); follow-up screen, replicate 3): 326.5; Area under the dose-response curve (AUC) MKL-1 Replicate 1 (MKL-1 cells (VP-MCC); follow-up screen, MKL-1, replicate 1): 329.2; Area under the dose-response curve (AUC) MKL-1 Replicate 2 (MKL-1 cells (VP-MCC); follow-up screen, MKL-1, replicate 2): 327.6; Area under the dose-response curve (AUC) MKL-1 Replicate 3 (MKL-1 cells (VP-MCC); follow-up screen, MKL-1, replicate 3): 322.0; Area under the dose-response curve (AUC) MKL-2 Replicate 1 (MKL-2 cells (VP-MCC); follow-up screen, MKL-2, replicate 1): 313.7; Area under the dose-response curve (AUC) MKL-2 Replicate 2 (MKL-2 cells (VP-MCC); follow-up screen, MKL-2, replicate 2): 309.2; Area under the dose-response curve (AUC) MKL-2 Replicate 3 (MKL-2 cells (VP-MCC); follow-up screen, MKL-2, replicate 3): 301.8
2 | c1ccc(CC2=NCCN2)cc1 [Tolazoline hydrochloride] | 452.083 | 395.361 | 451.588 | 433.154 | 395.582 | 397.927 | 471.166 | 454.352 | 440.048 | 475.841 | 420.949 | 408.888 | 51.4641 | 433.01 | 27.3412 | 460.352 | 39.4026 | –
3 | C#C[C@]1(OC(C)=O)CC[C@H]2[C@@H]3CCC4=CC(=NO)CC[C@@H]4[C@H]3CC[C@@]21CC (mixture of isomers) [Norgestimate] | 443.22 | 396.073 | 417.397 | 384.002 | 398.179 | 415.787 | 469.318 | 418.545 | 462.903 | 491.565 | 409.109 | 399.323 | 61.2604 | 418.896 | 41.6867 | 460.583 | 51.4735 | MCC26_AUC (MCC26 cells (VN-MCC); NPC library, qHTS dose-response AUC, MCC26): 396.072; HEK293T_AUC (HEK293T cells; NPC library, qHTS dose-response AUC, HEK293T control): 418.546; MCC_Avg_AUC ([1]; mean AUC of all 6 MCC cell lines): 409.11; Control-VP-MCC ([2]; Control AUC minus VP-MCC AUC): 61.2604; Control-VN-MCC ([3]; Control AUC minus VN-MCC AUC): 41.6867
4 | CCCCC1C(=O)N(c2ccccc2)N(c2ccc(O)cc2)C1=O (stereo not shown) [Oxyphenbutazone] | 405.464 | 450.163 | 403.541 | 370.924 | 340.624 | 317.862 | 428.222 | 361.816 | 433.353 | 449.026 | 381.43 | 343.137 | 74.9673 | 419.723 | -1.619 | 418.104 | 36.6743 | –
